Results: patent US20020006900A1, “Colon cancer KH-1 and N3 antigens” (priority 1997, published 2002)

Tests used:
[1] = system: Monoclonal Antibody BR 96 (Le^y related); assay: Dot-blot immune stain of carbohydrates with monoclonal antibody BR 96; assay type: binding; conditions: for Binding with BR 96 (Le^y related) by dot-blot: 0.5 μg antigen spotted, BR 96 diluted 1:500
Protocol: 0.5 μg KH-1 ceramide and other Ley antigen and unrelated antigens were spotted on nitrocellulose strips. Dot blot Immune staining was performed monoclonal antibody BR 96 after blocked with 6% bovine serum albumin in PBS for 1 h and incubated with antibody BR 96 (diluted 1:500 in PBS) overnight at room temperature. The strips were washed with PBS containing 0.05% Tween 20 and incubated with anti-mouse IgG antibody conjugated with horseradish peroxidase at 1:200 dilution for 3 h at room temperature. Then the strips were washed with PBS-0.05% Tween 20 and developed with 4-chloro-1-naphtol-H2O2.

[2] = system: Monoclonal Antibody F12 (FucosylGM1); assay: Dot-blot immune stain of carbohydrates with monoclonal antibody F12; assay type: binding; conditions: 0.5 μg antigen spotted

Row | Binding with BR 96 (Le^y related) by dot-blot [1] | Binding with F12 (FucosylGM1) by dot-blot [2] | Substance | Reaction with BR 96 antibody by dot-blot ([1]; compared with other Le^y related antigens)
1 | very strong | negative | KH-1 antigen [KH-1 ceramide] | reacted very strongly
2 | negative | negative | Globo H ceramide [reference compound] | 
